In ChEMBL document CHEMBL5647694, “Novel orally bioavailable EZH1/2 dual inhibitors with greater antitumor efficacy than an EZH2 selective inhibitor” (Cancer Sci, 2017):

What was measured:
[1] = molecular target: Ephrin type-A receptor 4 (Homo sapiens) (UniProt P54764); test: Inhibition of N-terminal GST-fused human EPHA4 cytoplasmic domain (586 to 986 residues) expressed in baculovirus-infected Sf21 cells using Blk/Lyntide as substrate at 1 uM in presence of ATP by Mobility shift assay
[2] = molecular target: Fibroblast growth factor receptor 2 (Homo sapiens) (UniProt P21802); test: Inhibition of N-terminal GST-fused human FGFR2 cytoplasmic domain (399 to 821 residues) expressed in baculovirus-infected Sf21 cells using CSKtide as substrate at 1 uM in presence of ATP by Mobility shift assay
[3] = molecular target: Receptor-type tyrosine-protein kinase FLT3 (Homo sapiens) (UniProt P36888); test: Inhibition of N-terminal GST-fused human FLT3 cytoplasmic domain (564 to 993 residues) expressed in baculovirus-infected Sf21 cells using Srctide as substrate at 1 uM in presence of ATP by Mobility shift assay
[4] = molecular target: Receptor tyrosine-protein kinase erbB-2 (Homo sapiens) (UniProt P04626); test: Inhibition of N-terminal His-tagged human HER2 cytoplasmic domain (676 to 1255 residues) expressed in baculovirus-infected Sf21 cells using Srctide as substrate at 1 uM in presence of ATP by Mobility shift assay
[5] = molecular target: Insulin receptor-related protein (Homo sapiens) (UniProt P14616); test: Inhibition of N-terminal fused human IRR cytoplasmic domain (953 to 1297 residues) expressed in baculovirus-infected Sf21 cells using IRS1 as substrate at 1 uM in presence of ATP by Mobility shift assay
[6] = molecular target: Mast/stem cell growth factor receptor Kit (Homo sapiens) (UniProt P10721); test: Inhibition of N-terminal GST-tagged human KIT cytoplasmic domain (544 to 976 residues) expressed in baculovirus-infected Sf21 cells using Srctide as substrate at 1 uM in presence of ATP by Mobility shift assay
[7] = molecular target: Proto-oncogene tyrosine-protein kinase Src (Homo sapiens) (UniProt P12931); test: Inhibition of N-terminal GST-tagged full length human SRC (1 to 536 residues) expressed in baculovirus-infected Sf21 cells using Srctide as substrate at 1 uM in presence of ATP by Mobility shift assay
[8] = molecular target: Aurora kinase A (Homo sapiens) (UniProt O14965); test: Inhibition of N-terminal GST-fused full length human AurA (1 to 403 residues) expressed in baculovirus-infected Sf21 cells using Kemptide as substrate at 1 uM in presence of ATP by Mobility shift assay
[9] = molecular target: Calcium/calmodulin-dependent protein kinase type II subunit alpha (Homo sapiens) (UniProt Q9UQM7); test: Inhibition of N-terminal GST-fused full length human CAMK2a (1 to 478 residues) expressed in baculovirus-infected Sf21 cells using GS peptide as substrate at 1 uM in presence of ATP by Mobility shift assay
[10] = molecular target: CDK4/Cyclin D3 (Homo sapiens) (UniProt P11802+P30281); test: Inhibition of N-terminal GST-tagged full length human CDK4 (1 to 303 residues)/N-terminal GST-tagged human CyclinD3 (1 to 292 residues) expressed in baculovirus-infected Sf21 cells using DYRKtide-F as substrate at 1 uM in presence of ATP by Mobility shift assay
[11] = molecular target: Citron Rho-interacting kinase (Homo sapiens) (UniProt O14578); test: Inhibition of N-terminal GST-fused human CRIK catalytic domain (1 to 449 residues) expressed in baculovirus expression system using Histone H3 peptide as substrate at 1 uM in presence of ATP by Mobility shift assay
[12] = molecular target: Glycogen synthase kinase-3 alpha (Homo sapiens) (UniProt P49840); test: Inhibition of N-terminal GST-fused full length human GSK3-alpha (1 to 483 residues) expressed in baculovirus expression system using CREBtide-p as substrate at 1 uM in presence of ATP by Mobility shift assay
[13] = molecular target: Inhibitor of nuclear factor kappa-B kinase subunit epsilon (Homo sapiens) (UniProt Q14164); test: Inhibition of N-terminal GST-fused full length human IKK-epsilon(1 to 716 residues) expressed in baculovirus expression system using IkBalpha peptide as substrate at 1 uM in presence of ATP by Mobility shift assay
[14] = molecular target: Serine/threonine-protein kinase LATS2 (Homo sapiens) (UniProt Q9NRM7); test: Inhibition of N-terminal GST-fused human LATS2 catalytic domain (553 to 1088 residues) expressed in baculovirus expression system using SGKtide as substrate at 1 uM in presence of ATP by Mobility shift assay
[15] = molecular target: Ribosomal protein S6 kinase alpha-5 (Homo sapiens) (UniProt O75582); test: Inhibition of N-terminal GST-fused full length human MSK1 (1 to 802 residues) expressed in baculovirus expression system using Crosstide as substrate at 1 uM in presence of ATP by Mobility shift assay
[16] = molecular target: Serine/threonine-protein kinase 24 (Homo sapiens) (UniProt Q9Y6E0); test: Inhibition of N-terminal GST-fused full length human MST3 (1 to 431 residues) expressed in baculovirus expression system using Moesin-derived peptide as substrate at 1 uM in presence of ATP by Mobility shift assay
[17] = molecular target: Ribosomal protein S6 kinase beta-1 (Homo sapiens) (UniProt P23443); test: Inhibition of N-terminal GST-fused human p70S6K catalytic domain (1 to 421 residues) expressed in baculovirus expression system using S6K2 peptide as substrate at 1 uM in presence of ATP by Mobility shift assay
[18] = molecular target: Lymphokine-activated killer T-cell-originated protein kinase (Homo sapiens) (UniProt Q96KB5); test: Inhibition of N-terminal GST-fused full length human PBK (1 to 322 residues) expressed in baculovirus expression system using Histone H3 peptide as substrate at 1 uM in presence of ATP by Mobility shift assay
[19] = molecular target: Serine/threonine-protein kinase pim-3 (Homo sapiens) (UniProt Q86V86); test: Inhibition of N-terminal GST-tagged full length human PIM3 (1 to 326 residues) expressed in baculovirus expression system using S6K2 peptide as substrate at 1 uM in presence of ATP by Mobility shift assay
[20] = molecular target: Serine/threonine-protein kinase Sgk3 (Homo sapiens) (UniProt Q96BR1); test: Inhibition of N-terminal GST-fused truncated human SGK3 (119 to 496 residues) expressed in baculovirus expression system using SGKtide as substrate at 1 uM in presence of ATP by Mobility shift assay
[21] = molecular target: Serine/threonine-protein kinase WNK3 (Homo sapiens) (UniProt Q9BYP7); test: Inhibition of N-terminal GST-fused human WNK3 catalytic domain (1 to 434 residues) expressed in baculovirus expression system using SPAKtide as substrate at 1 uM in presence of ATP by Mobility shift assay
[22] = molecular target: 3-phosphoinositide-dependent protein kinase 1 (PDPK1) (Homo sapiens) (UniProt O15530); test: Inhibition of N-terminal GST-fused full length human PDK1 (1 to 556 residues) expressed in baculovirus expression system using T308tide as substrate at 1 uM in presence of ATP by Mobility shift assay

Chain of Proto-oncogene tyrosine-protein kinase Src (Homo sapiens) (P12931 2-536 limits assumed): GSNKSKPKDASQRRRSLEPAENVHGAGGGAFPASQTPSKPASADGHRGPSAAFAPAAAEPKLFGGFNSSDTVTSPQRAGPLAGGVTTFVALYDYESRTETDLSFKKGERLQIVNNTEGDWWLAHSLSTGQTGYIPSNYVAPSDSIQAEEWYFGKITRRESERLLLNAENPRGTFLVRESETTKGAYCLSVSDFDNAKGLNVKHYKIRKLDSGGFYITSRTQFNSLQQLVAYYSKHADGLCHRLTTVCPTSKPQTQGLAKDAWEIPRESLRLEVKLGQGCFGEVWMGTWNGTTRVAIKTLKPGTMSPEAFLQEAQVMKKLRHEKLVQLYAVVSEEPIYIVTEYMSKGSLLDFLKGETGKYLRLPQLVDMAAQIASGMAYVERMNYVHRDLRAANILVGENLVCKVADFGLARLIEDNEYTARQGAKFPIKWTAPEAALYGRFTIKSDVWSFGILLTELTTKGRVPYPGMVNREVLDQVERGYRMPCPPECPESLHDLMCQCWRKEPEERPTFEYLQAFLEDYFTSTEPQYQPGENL
Chain of Receptor-type tyrosine-protein kinase FLT3 (Homo sapiens) (P36888 whole entry, the tested form may be a part): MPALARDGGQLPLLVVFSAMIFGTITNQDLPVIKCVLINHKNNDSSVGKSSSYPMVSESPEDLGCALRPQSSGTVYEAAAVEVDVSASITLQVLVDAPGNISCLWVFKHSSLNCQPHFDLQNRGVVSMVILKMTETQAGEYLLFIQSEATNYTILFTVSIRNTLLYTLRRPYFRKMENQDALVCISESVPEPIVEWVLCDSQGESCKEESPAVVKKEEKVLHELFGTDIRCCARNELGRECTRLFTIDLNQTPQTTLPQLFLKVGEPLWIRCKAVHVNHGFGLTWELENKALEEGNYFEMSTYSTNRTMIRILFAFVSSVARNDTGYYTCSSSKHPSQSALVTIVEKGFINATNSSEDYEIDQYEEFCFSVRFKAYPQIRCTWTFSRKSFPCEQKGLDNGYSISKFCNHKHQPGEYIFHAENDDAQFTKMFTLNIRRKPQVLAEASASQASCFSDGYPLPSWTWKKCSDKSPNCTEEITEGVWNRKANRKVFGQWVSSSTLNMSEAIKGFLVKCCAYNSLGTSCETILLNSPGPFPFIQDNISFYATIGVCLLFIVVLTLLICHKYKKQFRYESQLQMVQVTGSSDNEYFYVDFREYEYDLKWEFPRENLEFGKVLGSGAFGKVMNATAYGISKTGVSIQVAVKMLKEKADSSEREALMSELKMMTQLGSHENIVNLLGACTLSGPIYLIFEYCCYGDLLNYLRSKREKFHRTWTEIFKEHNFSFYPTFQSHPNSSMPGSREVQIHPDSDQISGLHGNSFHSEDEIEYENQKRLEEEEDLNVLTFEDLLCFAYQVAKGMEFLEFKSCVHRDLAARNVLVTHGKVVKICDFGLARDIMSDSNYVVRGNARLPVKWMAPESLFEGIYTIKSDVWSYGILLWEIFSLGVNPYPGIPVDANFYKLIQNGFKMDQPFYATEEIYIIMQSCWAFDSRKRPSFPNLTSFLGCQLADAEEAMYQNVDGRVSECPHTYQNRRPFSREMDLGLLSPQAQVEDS
Chain of Insulin receptor-related protein (Homo sapiens) (P14616 27-742 limits assumed): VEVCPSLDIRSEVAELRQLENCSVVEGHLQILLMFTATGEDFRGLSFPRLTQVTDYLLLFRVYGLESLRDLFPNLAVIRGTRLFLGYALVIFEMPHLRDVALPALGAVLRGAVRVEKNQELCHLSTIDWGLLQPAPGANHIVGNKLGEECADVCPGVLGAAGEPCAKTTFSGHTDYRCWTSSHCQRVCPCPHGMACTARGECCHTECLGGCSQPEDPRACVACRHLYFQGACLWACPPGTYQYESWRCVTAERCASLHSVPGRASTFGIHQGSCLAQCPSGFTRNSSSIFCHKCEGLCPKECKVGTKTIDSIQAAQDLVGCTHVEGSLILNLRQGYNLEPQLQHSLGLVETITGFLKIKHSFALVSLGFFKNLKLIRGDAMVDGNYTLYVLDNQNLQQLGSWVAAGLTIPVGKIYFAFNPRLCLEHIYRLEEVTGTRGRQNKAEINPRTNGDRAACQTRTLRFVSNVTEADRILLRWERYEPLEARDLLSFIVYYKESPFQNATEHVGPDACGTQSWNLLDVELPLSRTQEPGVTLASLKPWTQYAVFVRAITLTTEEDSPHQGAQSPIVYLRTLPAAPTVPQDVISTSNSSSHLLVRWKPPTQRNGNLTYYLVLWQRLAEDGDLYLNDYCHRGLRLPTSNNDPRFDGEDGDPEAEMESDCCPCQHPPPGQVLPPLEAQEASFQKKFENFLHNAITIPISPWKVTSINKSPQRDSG
Chain of Insulin receptor-related protein (Homo sapiens) (P14616 747-1297 limits assumed): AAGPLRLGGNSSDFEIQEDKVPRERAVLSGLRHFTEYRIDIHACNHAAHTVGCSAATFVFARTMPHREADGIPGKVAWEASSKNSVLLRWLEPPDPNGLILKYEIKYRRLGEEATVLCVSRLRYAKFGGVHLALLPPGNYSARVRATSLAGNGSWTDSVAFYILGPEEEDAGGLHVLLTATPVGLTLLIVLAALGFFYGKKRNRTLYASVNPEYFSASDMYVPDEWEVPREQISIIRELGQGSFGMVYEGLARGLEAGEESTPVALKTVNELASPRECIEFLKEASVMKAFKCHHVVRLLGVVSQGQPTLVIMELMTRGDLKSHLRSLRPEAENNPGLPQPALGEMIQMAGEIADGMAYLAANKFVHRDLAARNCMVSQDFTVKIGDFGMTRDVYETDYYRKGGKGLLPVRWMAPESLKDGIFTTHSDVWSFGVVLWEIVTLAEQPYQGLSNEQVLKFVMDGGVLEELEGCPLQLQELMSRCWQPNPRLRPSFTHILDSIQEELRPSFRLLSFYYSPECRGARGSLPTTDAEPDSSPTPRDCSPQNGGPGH
Chain of Citron Rho-interacting kinase (Homo sapiens) (O14578 whole entry, the tested form may be a part): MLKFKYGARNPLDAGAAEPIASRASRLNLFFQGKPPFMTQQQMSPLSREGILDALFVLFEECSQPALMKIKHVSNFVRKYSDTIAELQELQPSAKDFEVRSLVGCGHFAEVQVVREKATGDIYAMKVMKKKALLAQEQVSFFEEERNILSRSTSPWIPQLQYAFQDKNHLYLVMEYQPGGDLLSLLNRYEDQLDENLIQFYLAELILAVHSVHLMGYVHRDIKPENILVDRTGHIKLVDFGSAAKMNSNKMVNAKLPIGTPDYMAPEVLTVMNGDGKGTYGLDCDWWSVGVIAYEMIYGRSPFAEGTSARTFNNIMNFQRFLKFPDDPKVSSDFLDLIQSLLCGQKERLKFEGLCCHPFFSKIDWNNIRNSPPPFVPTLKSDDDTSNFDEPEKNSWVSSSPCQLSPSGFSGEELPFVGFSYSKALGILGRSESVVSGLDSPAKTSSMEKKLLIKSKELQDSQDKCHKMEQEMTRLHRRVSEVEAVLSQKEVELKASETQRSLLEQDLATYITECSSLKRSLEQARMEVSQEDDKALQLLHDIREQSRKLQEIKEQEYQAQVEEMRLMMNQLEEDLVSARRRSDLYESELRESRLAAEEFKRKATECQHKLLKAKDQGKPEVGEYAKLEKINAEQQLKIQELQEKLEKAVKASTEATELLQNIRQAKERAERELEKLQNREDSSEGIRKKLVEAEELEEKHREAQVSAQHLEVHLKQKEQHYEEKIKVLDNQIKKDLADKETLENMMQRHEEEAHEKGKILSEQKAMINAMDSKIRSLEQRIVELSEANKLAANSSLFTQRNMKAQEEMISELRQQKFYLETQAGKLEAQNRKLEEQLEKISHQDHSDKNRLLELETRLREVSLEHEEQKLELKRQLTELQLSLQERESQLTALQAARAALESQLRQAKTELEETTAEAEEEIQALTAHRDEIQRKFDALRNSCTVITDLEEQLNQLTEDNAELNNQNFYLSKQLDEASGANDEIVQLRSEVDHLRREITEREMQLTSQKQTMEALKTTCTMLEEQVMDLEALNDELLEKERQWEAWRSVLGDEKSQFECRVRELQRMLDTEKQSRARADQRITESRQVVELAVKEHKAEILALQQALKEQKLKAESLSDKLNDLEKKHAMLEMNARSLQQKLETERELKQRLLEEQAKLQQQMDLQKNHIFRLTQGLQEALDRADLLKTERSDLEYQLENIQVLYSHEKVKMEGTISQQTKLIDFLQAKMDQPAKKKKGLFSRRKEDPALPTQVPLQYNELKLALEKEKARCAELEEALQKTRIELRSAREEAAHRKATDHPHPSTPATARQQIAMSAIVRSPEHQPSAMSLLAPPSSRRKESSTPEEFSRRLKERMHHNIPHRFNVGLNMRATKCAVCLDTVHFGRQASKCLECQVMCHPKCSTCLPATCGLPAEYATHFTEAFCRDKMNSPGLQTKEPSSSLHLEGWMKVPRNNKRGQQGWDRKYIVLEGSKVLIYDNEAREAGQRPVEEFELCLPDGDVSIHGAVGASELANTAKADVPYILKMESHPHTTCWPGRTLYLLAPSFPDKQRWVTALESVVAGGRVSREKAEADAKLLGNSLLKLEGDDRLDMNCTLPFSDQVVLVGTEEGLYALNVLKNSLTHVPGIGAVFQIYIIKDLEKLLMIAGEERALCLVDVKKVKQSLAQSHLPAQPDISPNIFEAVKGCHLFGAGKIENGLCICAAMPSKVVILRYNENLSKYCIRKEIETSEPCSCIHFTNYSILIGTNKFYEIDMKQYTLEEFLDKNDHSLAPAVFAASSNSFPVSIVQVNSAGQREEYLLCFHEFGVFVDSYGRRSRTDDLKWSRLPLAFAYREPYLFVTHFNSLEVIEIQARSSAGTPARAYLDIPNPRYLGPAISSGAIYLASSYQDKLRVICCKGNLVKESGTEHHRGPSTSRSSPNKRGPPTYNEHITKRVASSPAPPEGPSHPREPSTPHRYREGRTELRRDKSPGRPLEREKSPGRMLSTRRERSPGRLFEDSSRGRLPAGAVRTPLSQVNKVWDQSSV

| SMILES | inhibition [1] | inhibition [2] | inhibition [3] | inhibition [4] | inhibition [5] | inhibition [6] | inhibition [7] | inhibition [8] | inhibition [9] | inhibition [10] | inhibition [11] | inhibition [12] | inhibition [13] | inhibition [14] | inhibition [15] | inhibition [16] | inhibition [17] | inhibition [18] | inhibition [19] | inhibition [20] | other results |
| --- | --- | --- | --- | --- | --- | --- | --- | --- | --- | --- | --- | --- | --- | --- | --- | --- | --- | --- | --- | --- | --- |
| Cc1cc(C)c(CNC(=O)c2cc(Br)c3c(c2C)O[C@@](C)([C@H]2CC[C@H](N(C)C)CC2)O3)c(=O)[nH]1 | -4.3% | -2.6% | -2.6% | 6% | -8.8% | -4.7% | -4.9% | 0.6% | -1.1% | -4.5% | -7.4% | 1.8% | -5.6% | -0.6% | 1.4% | -6.2% | 4.3% | -2.5% | 5.7% | -4.5% | inhibition [21]: -9.2%; inhibition [22]: -5.4% |
| Cc1cc(C)c(CNC(=O)c2cc(Cl)c3c(c2C)O[C@@](C)([C@H]2CC[C@H](N(C)C)CC2)O3)c(=O)[nH]1 [VALEMETOSTAT] | -3% | -4% | -1.5% | 5.6% | -4.6% | -5.6% | -7.6% | -0.5% | -2.8% | 2.1% | -5% | 1.9% | -2.8% | 0.6% | 0.4% | -1.9% | 1.5% | -3.4% | 5.9% | 0.3% | inhibition [21]: -3.9%; inhibition [22]: -5.9% |
